The record followed here is US12612424B2, “HPK1 inhibitors and uses thereof” (Regor Pharmaceuticals, Inc., priority 2019, dated 2026).

One assay concerns the target T1, JAK3 (Homo sapiens, UniProt P52333).
T1 construct: purchased Thermo fisher PV3855
Description: JAK3 biochemical assay (ADP-GLO Kinase Assay). Conditions: for JAKs/HPK1 IC50 Ratio, B* / JAKs/HPK1 IC50 Ratio, N*: ratio of JAK3 IC50 to HPK1 IC50; for JAKs/HPK1 IC50 Ratio, B*: first testing facility; for JAKs/HPK1 IC50 Ratio, N*: second testing facility. Put shortly:
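Human JAK3 (0.78 ng) with 0.2 μg/μL Poly(E4Y1) and 4 μM ATP in 40 mM Tris pH 7.5, 20 mM MgCl2, 0.1 mg/ml BSA, 50 μM DTT, 1% DMSO; 60 min at 25 °C. ADP formed read by ADP-Glo luminescence. 10-dose 3-fold series from 10 μM; IC50 by three-parameter logistic fit.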
(In ADP-Glo the light output rises with the ADP produced.)

In another assay the target is HPK1 (Homo sapiens, UniProt Q92918). Description: HPK1 biochemical assay (ADP-GLO Kinase Assay). Put shortly:
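HPK1 (0.6 ng/μL final) activity was followed with MBP substrate and 10 μM ATP in Tris pH 7.5/MgCl2/BSA/DTT buffer, measured by ADP-Glo luminescence. Compounds were tested as 3-fold dilutions from 10 μM. IC50 came from a three-parameter logistic fit, with inhibition normalised to high/low controls.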

Where [1] appears, read: B*: testing performed in a first testing facility, read-out: JAK3 IC50 (nM) Relative, B*.
Where [2] appears, read: B*: testing performed in a first testing facility, read-out: HPK1 IC50 (nM) Relative, B*.
Setting [3] is: N*: testing performed in a second testing facility, read-out: JAK3 IC50 (nM) Relative, N*.
Where [4] appears, read: N*: testing performed in a second testing facility, read-out: HPK1 IC50 (nM) Relative, N*.

Where two headings read alike, the source gives them in different places. Some results are limits rather than exact numbers.

T1 sequence (P52333 781-1124 limits assumed): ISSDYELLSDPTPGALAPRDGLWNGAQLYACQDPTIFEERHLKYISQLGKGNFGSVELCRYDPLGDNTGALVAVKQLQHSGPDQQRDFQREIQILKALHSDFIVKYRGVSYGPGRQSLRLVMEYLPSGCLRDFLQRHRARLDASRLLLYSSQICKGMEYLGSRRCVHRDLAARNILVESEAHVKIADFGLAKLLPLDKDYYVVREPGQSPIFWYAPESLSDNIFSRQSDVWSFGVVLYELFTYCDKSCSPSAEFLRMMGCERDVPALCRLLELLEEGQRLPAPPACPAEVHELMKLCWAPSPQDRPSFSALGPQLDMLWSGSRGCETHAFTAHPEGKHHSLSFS
Sequence of HPK1 (Q92918 whole entry): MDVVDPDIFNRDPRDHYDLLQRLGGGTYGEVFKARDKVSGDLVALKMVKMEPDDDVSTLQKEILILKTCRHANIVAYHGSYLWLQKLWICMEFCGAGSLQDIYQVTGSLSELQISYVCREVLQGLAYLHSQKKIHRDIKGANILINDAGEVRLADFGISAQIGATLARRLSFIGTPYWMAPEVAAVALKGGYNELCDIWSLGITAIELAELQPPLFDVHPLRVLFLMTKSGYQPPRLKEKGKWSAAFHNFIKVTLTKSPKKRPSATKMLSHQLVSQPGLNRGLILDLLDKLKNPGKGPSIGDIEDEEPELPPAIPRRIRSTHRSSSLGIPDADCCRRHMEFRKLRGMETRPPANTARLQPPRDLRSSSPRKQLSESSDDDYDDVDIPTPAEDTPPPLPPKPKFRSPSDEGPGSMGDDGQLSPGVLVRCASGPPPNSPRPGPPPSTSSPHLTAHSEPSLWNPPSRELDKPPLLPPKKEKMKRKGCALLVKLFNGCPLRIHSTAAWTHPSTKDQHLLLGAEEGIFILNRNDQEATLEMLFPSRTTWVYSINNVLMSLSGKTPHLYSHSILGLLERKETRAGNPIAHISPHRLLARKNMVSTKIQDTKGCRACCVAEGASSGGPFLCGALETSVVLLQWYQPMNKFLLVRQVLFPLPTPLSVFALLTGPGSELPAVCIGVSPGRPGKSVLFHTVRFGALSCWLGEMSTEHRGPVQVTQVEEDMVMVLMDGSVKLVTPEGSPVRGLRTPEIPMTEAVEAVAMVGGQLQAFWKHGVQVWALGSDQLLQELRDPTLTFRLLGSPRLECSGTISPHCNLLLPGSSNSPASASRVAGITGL

`COc1cc2c(cc1Nc1ncc(Cl)c(N3CC(C(=O)N(C)O)c4ccccc43)n1)CN(C)CC2` (stereo not drawn) [Example 102]: the IC50 (as a rule, the concentration that inhibits the measured activity by half) on JAK3 (setting [1]) was greater than 1000 nM; at HPK1 (setting [2]), no more than 100 nM. Also, the “JAKs/HPK1 IC50 Ratio, B*” value on JAK3 is listed as greater than 2603.
In the case of `CN1CCc2ccc(Nc3ncc(Cl)c(N4CCc5ccccc54)n3)cc2C1` [Example 14, N-(5-Chloro-4-(indolin-1-yl)pyrimidin-2-yl)-2-methyl-1,2,3,4-tetrahydroisoquinolin-7-amine], the half-maximal inhibitory concentration (IC50) on JAK3 (setting [1]), at JAK3 (setting [3]), on HPK1 (setting [2]) and on HPK1 (setting [4]) was no more than 100 nM in each case. Further, the “JAKs/HPK1 IC50 Ratio, B*” value on JAK3 is 6. In addition, the “JAKs/HPK1 IC50 Ratio, N*” value on JAK3 turned out to be 11.
As for `COc1cc2c(cc1Nc1ncc(Cl)c(N3CC(C(=O)O)c4c(OC)cccc43)n1)CN(C)CC2` (stereo not drawn) [Example 108, 1-(5-Chloro-2-((6-methoxy-2-methyl-1,2,3,4-tetrahydroisoquinolin-7-yl)amino)pyrimidin-4-yl)-4-methoxyindoline-3-carboxylic acid], the IC50 at JAK3 (setting [1]) is greater than 1000 nM; on HPK1 (setting [2]) it was no more than 100 nM. The “JAKs/HPK1 IC50 Ratio, B*” value on JAK3 amounted to 886.
For `COc1cc2c(cc1Nc1ncc(Cl)c(N3CC(C)(CC(=O)O)c4cc(F)ccc43)n1)CN(C)CC2` (stereo not drawn) [Example 150, 2-(1-(5-Chloro-2-((6-methoxy-2-methyl-1,2,3,4-tetrahydroisoquinolin-7-yl)amino)pyrimidin-4-yl)-5-fluoro-3-methylindolin-3-yl)acetic acid], in that order: 100 to 500 nM, no more than 100 nM and 171.
Turning to `COc1cc2c(cc1Nc1ncc(Cl)c(N3CC(C)(CC(=O)O)c4ccc(F)cc43)n1)CN(C)CC2` (stereo not drawn) [Example 151], the IC50 at JAK3 (setting [1]) and at HPK1 (setting [2]) was no more than 100 nM throughout. Besides, the “JAKs/HPK1 IC50 Ratio, B*” value at JAK3 is given as 187.
On to `COc1cc2c(cc1Nc1ncc(Cl)c(-n3cc(CC(=O)O)c4ccc(F)cc43)n1)CN(C)CC2` [Example 139], for which the IC50 at JAK3 (setting [1]) is 100 to 500 nM; on HPK1 (setting [2]), no more than 100 nM. Besides, on JAK3, the “JAKs/HPK1 IC50 Ratio, B*” value came out at 520.
For `COc1cc2c(cc1Nc1ncc(F)c(N3CC(C(=O)O)c4ccccc43)n1)CN(C)CC2` (stereo not drawn) [Example 109, 1-(5-Fluoro-2-((6-methoxy-2-methyl-1,2,3,4-tetrahydroisoquinolin-7-yl)amino)pyrimidin-4-yl)indoline-3-carboxylic acid], in that order: 500 to 1000 nM, no more than 100 nM and 269.
For `COc1cc2c(cc1Nc1ncc(Cl)c(-n3cc(C(C)C(=O)O)c4ccccc43)n1)CN(C)CC2` (stereo not drawn) [Example 142], in that order: 500 to 1000 nM, no more than 100 nM and 117.
For `COc1cc2c(cc1Nc1ncc(Cl)c(N3CC(C(=O)O)c4ccc(F)cc43)n1)CN(C)CC2` (stereo not drawn) [Example 105], in that order: 100 to 500 nM, no more than 100 nM and 140.
With `CONC(=O)C1CN(c2nc(Nc3cc4c(cc3OC)CCN(C)C4)ncc2Cl)c2ccccc21` (stereo not drawn) [Example 103, 1-(5-Chloro-2-((6-methoxy-2-methyl-1,2,3,4-tetrahydroisoquinolin-7-yl)amino)pyrimidin-4-yl)-N-methoxyindoline-3-carboxamide], the IC50 is 500 to 1000 nM at JAK3 (setting [1]) and no more than 100 nM at HPK1 (setting [2]). The “JAKs/HPK1 IC50 Ratio, B*” value at JAK3 is 540.
For the compound `COc1cc2c(cc1Nc1ncc(Cl)c(-n3ccc4ccccc43)n1)CN(C)CC2` [Example 2, N-(5-chloro-4-(1H-indol-1-yl)pyrimidin-2-yl)-6-methoxy-2-methyl-1,2,3,4-tetrahydroisoquinolin-7-amine], the IC50 was greater than 1000 nM at JAK3 (setting [3]), no more than 100 nM at HPK1 (setting [2]) and no more than 100 nM on HPK1 (setting [4]). The “JAKs/HPK1 IC50 Ratio, N*” value at JAK3 is on record as 642.
Regarding `COc1cc2c(cc1Nc1ncc(Cl)c(N3CC(c4nn[nH]n4)c4ccccc43)n1)CN(C)CC2` (stereo not drawn) [Example 100, N-(4-(3-(2H-tetrazol-5-yl)indolin-1-yl)-5-chloropyrimidin-2-yl)-6-methoxy-2-methyl-1,2,3,4-tetrahydroisoquinolin-7-amine], the IC50 on JAK3 (setting [1]) is 100 to 500 nM; at HPK1 (setting [2]), no more than 100 nM. Also, the “JAKs/HPK1 IC50 Ratio, B*” value on JAK3 was 200.
For `COc1cc2c(cc1Nc1ncc(Cl)c(-n3cc(CC#N)c4ccccc43)n1)CN(C)CC2` [Example 134], in that order: 500 to 1000 nM, no more than 100 nM and 243.
As for `COc1cc2c(cc1Nc1ncc(Cl)c(-n3cc(C(=O)N(C)C)c4ccccc43)n1)CN(C)CC2` [Example 8], the IC50 was greater than 1000 nM on JAK3 (setting [3]), no more than 100 nM on HPK1 (setting [2]) and no more than 100 nM at HPK1 (setting [4]). For the same compound, the “JAKs/HPK1 IC50 Ratio, N*” value on JAK3 is listed as greater than 2457.
`COc1cc2c(cc1Nc1ncc(Cl)c(N3CC4(CC4)c4ccccc43)n1)CN(C)CC2` [Example 84, N-(5-chloro-4-(spiro[cyclopropane-1,3′-indolin]-1′-yl)pyrimidin-2-yl)-6-methoxy-2-methyl-1,2,3,4-tetrahydroisoquinolin-7-amine]: the IC50 was 100 to 500 nM at JAK3 (setting [1]) and no more than 100 nM on HPK1 (setting [2]).
As to `CNC(=O)C1CN(c2nc(Nc3cc4c(cc3OC)CCN(C)C4)ncc2Cl)c2ccccc21` (stereo not drawn) [Example 97, 1-(5-Chloro-2-((6-methoxy-2-methyl-1,2,3,4-tetrahydroisoquinolin-7-yl)amino)pyrimidin-4-yl)-N-methylindoline-3-carboxamide], the IC50 at JAK3 (setting [1]) was greater than 1000 nM; at HPK1 (setting [2]), no more than 100 nM. Also, the “JAKs/HPK1 IC50 Ratio, B*” value at JAK3 is reported as 800.
Regarding `COc1cc2c(cc1Nc1ncc(Cl)c(N3CC(C)(CC(=O)O)c4ccc(F)cc43)n1)CN(C)CC2` (single isomer, unassigned) [Example 153], the IC50 at JAK3 (setting [1]) is greater than 1000 nM; at HPK1 (setting [2]), no more than 100 nM. In addition, the “JAKs/HPK1 IC50 Ratio, B*” value at JAK3 is on record as 358.
For `COc1cc2c(cc1Nc1ncc(Cl)c(-c3nn(CC(=O)O)c4ccccc34)n1)CN(C)CC2` [Example 162, 2-(3-(5-Chloro-2-((6-methoxy-2-methyl-1,2,3,4-tetrahydroisoquinolin-7-yl)amino)pyrimidin-4-yl)-1H-indazol-1-yl)acetic acid], in that order: greater than 1000 nM, no more than 100 nM and 415.
For `COC(=O)C1(C)CN(c2nc(Nc3cc4c(cc3OC)CCN(C)C4)ncc2Cl)c2ccccc21` (stereo not drawn) [Example 116], in that order: greater than 1000 nM, no more than 100 nM and 890.
For `COc1cc2c(cc1Nc1ncc(Cl)c(N3CC(P(C)(C)=O)c4ccccc43)n1)CN(C)CC2` (stereo not drawn) [Example 88], the 50% inhibitory concentration (IC50) is greater than 1000 nM at JAK3 (setting [1]) and no more than 100 nM at HPK1 (setting [2]).
On to `COc1cc2c(cc1Nc1ncc(Cl)c(-n3cc(CC(=O)O)c4cc(F)c(F)cc43)n1)CN(C)CC2` [Example 140], for which the IC50 was 500 to 1000 nM on JAK3 (setting [1]) and no more than 100 nM on HPK1 (setting [2]). On JAK3, the “JAKs/HPK1 IC50 Ratio, B*” value came out at 783.
As for `COc1cc2c(cc1Nc1ncc(Cl)c(N3CC(C(=O)NO)c4ccccc43)n1)CN(C)CC2` (stereo not drawn) [Example 101, 1-(5-Chloro-2-((6-methoxy-2-methyl-1,2,3,4-tetrahydroisoquinolin-7-yl)amino)pyrimidin-4-yl)-N-hydroxyindoline-3-carboxamide], the IC50 is greater than 1000 nM on JAK3 (setting [1]) and no more than 100 nM on HPK1 (setting [2]). In addition, the “JAKs/HPK1 IC50 Ratio, B*” value at JAK3 is given as 373.
For `CNC(=O)Cc1cn(-c2nc(Nc3cc4c(cc3OC)CCN(C)C4)ncc2Cl)c2ccccc12` [Example 136], in that order: 500 to 1000 nM, no more than 100 nM and 438.
For the compound `COc1cc2c(cc1Nc1ncc(Cl)c(N3CC(C)(C(=O)O)c4cc(F)ccc43)n1)CN(C)CC2` (stereo not drawn) [Example 125], the IC50 on JAK3 (setting [1]) and on HPK1 (setting [2]) was no more than 100 nM throughout. Also, the “JAKs/HPK1 IC50 Ratio, B*” value at JAK3 turned out to be 6.
With `COc1cc2c(cc1Nc1ncc(Cl)c(N3CCc4c(C(F)F)cccc43)n1)CN(C)CC2` [Example 92, N-(5-chloro-4-(4-(difluoromethyl)indolin-1-yl)pyrimidin-2-yl)-6-methoxy-2-methyl-1,2,3,4-tetrahydroisoquinolin-7-amine], the IC50 at JAK3 (setting [1]) is greater than 1000 nM; on HPK1 (setting [2]) it was no more than 100 nM. Further, the “JAKs/HPK1 IC50 Ratio, B*” value at JAK3 is on record as 393.
Turning to `COc1cc2c(cc1Nc1ncc(Cl)c(N3CC(C)(CC(=O)O)c4ccccc43)n1)CN(C)CC2` (single isomer, unassigned) [Example 147], the IC50 on JAK3 (setting [1]) is greater than 1000 nM; on HPK1 (setting [2]), no more than 100 nM. Further, at JAK3, the “JAKs/HPK1 IC50 Ratio, B*” value was determined as 132.
Regarding `COc1cc2c(cc1Nc1ncc(C(F)(F)F)c(-n3ccc4ccccc43)n1)CN(C)CC2` [Example 10, N-(4-(1H-indol-1-yl)-5-(trifluoromethyl)pyrimidin-2-yl)-6-methoxy-2-methyl-1,2,3,4-tetrahydroisoquinolin-7-amine], the IC50 is greater than 1000 nM on JAK3 (setting [1]) and no more than 100 nM at HPK1 (setting [2]). Also, at JAK3, the “JAKs/HPK1 IC50 Ratio, B*” value is greater than 298.
With `COc1cc2c(cc1Nc1ncc(Cl)c(N3C[C@@](C)(C(=O)O)c4ccccc43)n1)CN(C)CC2` (single isomer, unassigned) [Example 119], the IC50 on JAK3 (setting [1]) and at HPK1 (setting [2]) was no more than 100 nM throughout. Besides, the “JAKs/HPK1 IC50 Ratio, B*” value at JAK3 came to 10.
